In patent publication US8304394B2, “Low side effect pharmaceutical composition containing isoniazid” (priority 2008, dated 2012):

Biological target: CYP2E1 (Homo sapiens, UniProt P05181)
Test: Chlorzoxazone hydroxylation inhibition (6-OH-CZX by LC/MS/MS)
Details: human, microsomes, pH 7.4

Sequence of CYP2E1 (P05181 whole entry): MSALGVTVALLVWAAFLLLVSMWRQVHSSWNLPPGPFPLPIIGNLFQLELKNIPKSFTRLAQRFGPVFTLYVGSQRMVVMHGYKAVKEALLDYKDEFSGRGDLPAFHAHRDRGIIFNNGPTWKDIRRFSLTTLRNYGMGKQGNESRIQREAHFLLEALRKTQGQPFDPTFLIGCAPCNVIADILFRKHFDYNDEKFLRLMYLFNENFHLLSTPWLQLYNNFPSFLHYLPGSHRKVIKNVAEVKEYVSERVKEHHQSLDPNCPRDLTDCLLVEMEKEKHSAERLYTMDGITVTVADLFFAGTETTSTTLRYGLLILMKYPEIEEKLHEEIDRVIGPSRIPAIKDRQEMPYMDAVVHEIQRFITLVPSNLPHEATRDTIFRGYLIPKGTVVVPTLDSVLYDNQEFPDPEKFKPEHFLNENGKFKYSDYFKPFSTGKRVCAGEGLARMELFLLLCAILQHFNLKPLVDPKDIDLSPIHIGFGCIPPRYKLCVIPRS

| Compound | inhibition at 30 min, 16.5 µM | inhibition at 30 min, 33 µM | inhibition at 30 min, 66 µM |
| --- | --- | --- | --- |
| O=c1cc(-c2ccc(O)cc2)oc2cc(O)cc(O)c12 [Apigenin] | 28.9 ± 1.54% | 36.8 ± 1.98% | 47.5 ± 3.66% |
| O=c1cc(-c2ccccc2)oc2cc(O)c(O)c(O)c12 [Baicalein] | 35.3 ± 1.51% | 47.8 ± 3.4% | 50.1 ± 5.11% |
| O=C(O)[C@H]1O[C@@H](Oc2cc3oc(-c4ccccc4)cc(=O)c3c(O)c2O)[C@H](O)[C@@H](O)[C@@H]1O [Baicalin] | 22.5 ± 2.24% | 35.6 ± 3.09% | 49.3 ± 2.26% |
| O=c1c(-c2ccc(O)cc2)coc2cc(O)ccc12 [Daidzein] | 73.5 ± 1.74% | 76.3 ± 2.28% | 86.8 ± 1.04% |
| COc1ccc(-c2cc(=O)c3c(O)cc(O[C@@H]4O[C@H](CO[C@@H]5O[C@@H](C)[C@H](O)[C@@H](O)[C@H]5O)[C@@H](O)[C@H](O)[C@H]4O)cc3o2)cc1O [Diosmin] | 60 ± 1.96% | 43.1 ± 3.57% | 21.6 ± 1.19% |
| CCCCCCCCCCCCCC(=O)OCC [Ethyl Myristate] | 22.1 ± 0.78% | 41 ± 4.76% | 52 ± 2.38% |
| O=c1c(-c2ccc(O)cc2)coc2cc(O)cc(O)c12 [Genistein] | 43.9 ± 2.06% | 30.9 ± 1.62% | 36.9 ± 1.56% |
| O=c1c(O[C@@H]2O[C@H](CO)[C@H](O)[C@H](O)[C@H]2O)c(-c2ccc(O)c(O)c2)oc2cc(O)cc(O)c12 [Hyperoside] | -24.2 ± 1.19% | 35.6 ± 3.68% | 53.5 ± 1.2% |
| COc1cc(-c2oc3cc(O)cc(O)c3c(=O)c2O)ccc1O [Isorhamnetin] | 12.1 ± 1.06% | 18.7 ± 1.22% | 36.3 ± 1.59% |
| O=c1cc(-c2ccc(O)cc2)oc2cc(O)c([C@@H]3O[C@H](CO)[C@@H](O)[C@H](O)[C@H]3O)c(O)c12 [Isovitexin] | 59.8 ± 1.41% | 67.6 ± 3.24% | 81.8 ± 1.34% |
| O=c1cc(-c2ccc(O)c(O)c2)oc2cc(O)cc(O)c12 [Luteolin] | 39.1 ± 3.42% | 43.4 ± 4.74% | 53.2 ± 1.78% |
| O=c1c(O)c(-c2ccc(O)cc2O)oc2cc(O)cc(O)c12 [Morin] | 36.9 ± 1.56% | 52.1 ± 1.7% | 60.3 ± 1.56% |
| O=c1c(O)c(-c2cc(O)c(O)c(O)c2)oc2cc(O)cc(O)c12 [Myricetin] | 42.2 ± 2.55% | 59.2 ± 1.27% | 61.6 ± 0.88% |
| O=c1c(O)c(-c2ccc(O)c(O)c2)oc2cc(O)cc(O)c12 [Quercetin] | 46.4 ± 4.68% | 53 ± 2.17% | 73.3 ± 1.57% |
| C[C@@H]1O[C@@H](Oc2c(-c3ccc(O)c(O)c3)oc3cc(O)cc(O)c3c2=O)[C@H](O)[C@H](O)[C@H]1O [Quercitrin] | 33.5 ± 4.29% | 53.8 ± 3.51% | 61 ± 5.88% |
| C[C@@H]1O[C@@H](OC[C@H]2O[C@@H](Oc3c(-c4ccc(O)c(O)c4)oc4cc(O)cc(O)c4c3=O)[C@H](O)[C@@H](O)[C@@H]2O)[C@H](O)[C@H](O)[C@H]1O [Rutin] | 30 ± 0.81% | 30.1 ± 1.62% | 43.5 ± 3.09% |
| COc1cc(C2Oc3cc([C@H]4Oc5cc(O)cc(O)c5C(=O)[C@@H]4O)ccc3OC2CO)ccc1O (stereo partly drawn) [Silybin] | 59.5 ± 2.34% | 37.1 ± 1.15% | 39 ± 1.19% |
| COc1ccc(-c2oc3cc(O)cc(O)c3c(=O)c2O)cc1O [Tamarixetin] | 37.4 ± 1.96% | 47.8 ± 2.81% | 50.9 ± 3.12% |
| O=C/C=C/c1ccccc1 [Trans-Cinnamaldehyde] | 60.8 ± 3% | 89.6 ± 1.52% | 92.81 ± 0.53% |
